Measurements: patent US12116343B2, “Inhibitors of APOL1 and methods of using same” (Vertex Pharmaceuticals Incorporated, priority 2020, dated 2024)

Biological target: T1, G1 APOL1 (Homo sapiens, UniProt O14791, I384M/S342G)
T1 construct: expressed in transfected cells
T1 sequence (O14791 28-398 S342G/I384M): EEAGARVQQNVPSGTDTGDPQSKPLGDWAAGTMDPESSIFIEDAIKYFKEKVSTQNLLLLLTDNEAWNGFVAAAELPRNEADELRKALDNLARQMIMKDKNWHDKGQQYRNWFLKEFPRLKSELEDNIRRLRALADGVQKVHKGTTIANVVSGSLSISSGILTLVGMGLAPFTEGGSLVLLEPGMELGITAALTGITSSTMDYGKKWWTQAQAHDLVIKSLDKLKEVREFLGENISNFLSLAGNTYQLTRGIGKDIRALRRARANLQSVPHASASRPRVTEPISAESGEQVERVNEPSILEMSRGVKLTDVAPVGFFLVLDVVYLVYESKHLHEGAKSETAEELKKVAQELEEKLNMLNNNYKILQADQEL
Test: Acute APOL1 Thallium Assay with inducible stable clones of HEK 293 cells
Type: cell-based
Settings: HEK 293 T-Rex cells expressing G1 APOL1; read-out: Thallium Assay (IC50)
Outline: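 Tetracycline-inducible HEK293 T-Rex clone G1 DC3.25 expressing G1 APOL1, plated at 26000 cells/well in Opti-MEM with tetracycline induction. APOL1 pore activity read on FLIPR as fluorescence increase from Tl+ influx into cells loaded with a Tl+-sensitive AM-ester dye.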

Row | Compound | IC50 [µM]
1 | O=C([C@H]1C[C@H](c2c(-c3ccc(F)cc3)[nH]c3c(F)cc(F)cc32)C1)N1C[C@@H](O)[C@H](O)C1 [Compound 227] | > 1
2 | O=C(NC[C@H](O)CO)[C@H]1C[C@H](c2c(-c3ccc(F)cc3)[nH]c3c(F)cc(F)cc32)C1 [Compound 225] | > 1
3 | COCCNC(=O)[C@H]1C[C@H](c2c(-c3ccc(F)cc3)[nH]c3c(F)cc(F)cc32)C1 [Compound 12] | > 1
4 | O=C1OCC[C@@H]1NC(=O)[C@H]1C[C@H](c2c(-c3ccc(F)cc3)[nH]c3c(F)cc(F)cc32)C1 [Compound 188] | 0.25 to 1
5 | CC(CO)N(C)C(=O)[C@H]1C[C@H](c2c(-c3ccc(F)cc3)[nH]c3c(F)cc(F)cc32)C1 (mixture of isomers) [Compound 193] | 0.25 to 1
6 | O=C(NC[C@@H](O)CO)[C@H]1C[C@H](c2c(-c3ccc(F)cc3)[nH]c3c(F)cc(F)cc32)C1 [Compound 224] | > 1
7 | Cc1nnc(CNC(=O)[C@H]2C[C@H](c3c(-c4ccc(F)cc4)[nH]c4c(F)cc(F)cc43)C2)o1 [Compound 172] | 0.25 to 1
8 | O=C([C@H]1C[C@H](c2c(-c3ccc(F)cc3)[nH]c3c(F)cc(F)cc32)C1)N1CCC[C@@H]1CO [Compound 192] | > 1
9 | CC(C#N)(CO)NC(=O)[C@H]1C[C@H](c2c(-c3ccc(F)cc3)[nH]c3c(F)cc(F)cc32)C1 (stereo partly shown) [Compound 191] | 0.25 to 1
10 | O=C1NCCCC1NC(=O)[C@H]1C[C@H](c2c(-c3ccc(F)cc3)[nH]c3c(F)cc(F)cc32)C1 (stereo partly shown) [Compound 23] | 0.25 to 1
11 | O=C([C@H]1C[C@H](c2c(-c3ccc(F)cc3)[nH]c3c(F)cc(F)cc32)C1)N1CCC[C@H]1CO [Compound 210] | > 1
12 | O=C(N[C@H]1CNC[C@@H]1O)[C@H]1C[C@H](c2c(-c3ccc(F)cc3)[nH]c3c(F)cc(F)cc32)C1 [Compound 212] | > 1

Next, values leading:

Row | IC50 [µM] | Compound
13 | 0.25 to 1 | O=C(N[C@@H]1CCOC1)[C@H]1C[C@H](c2c(-c3ccc(F)cc3)[nH]c3c(F)cc(F)cc32)C1 [Compound 19]
14 | 0.25 to 1 | CC1(NC(=O)[C@H]2C[C@H](c3c(-c4ccc(F)cc4)[nH]c4c(F)cc(F)cc43)C2)CCNC1=O (mixture of isomers) [Compound 197]
15 | < 0.25 | O=C(NC1(CO)CCOC1)[C@H]1C[C@H](c2c(-c3ccc(F)cc3)[nH]c3c(F)cc(F)cc32)C1 (stereo partly shown) [Compound 194]
16 | 0.25 to 1 | C#CC(CO)NC(=O)[C@H]1C[C@H](c2c(-c3ccc(F)cc3)[nH]c3c(F)cc(F)cc32)C1 (stereo partly shown) [Compound 196]
17 | 0.25 to 1 | O=C(NCC1(O)CC1)[C@H]1C[C@H](c2c(-c3ccc(F)cc3)[nH]c3c(F)cc(F)cc32)C1 [Compound 183]
18 | 0.25 to 1 | CC[C@H](CO)NC(=O)[C@H]1C[C@H](c2c(-c3ccc(F)cc3)[nH]c3c(F)cc(F)cc32)C1 [Compound 203]
19 | < 0.25 | CC(C)(CO)NC(=O)[C@H]1C[C@H](c2c(-c3ccc(F)cc3)[nH]c3c(F)cc(F)cc32)C1 [Compound 31]
